| SMILES | melting point [°C] |
| --- | --- |
| Nc1nncc(-c2ccccc2OC(F)F)n1 | 159 to 161 |
| FC(F)(F)Cc1nnc2ccc(Cl)nn12 | 137 to 139 |
| O=C(O)CCn1nnnc1S | 156 to 158 |
| O=C(O)CC(NC(=O)c1ccccc1)c1ccccc1 (stereo unspecified) | 197 to 199 |
| Cc1ccc(-c2ncco2)cc1N | 89 to 91 |
| O=C(Nc1ccccc1I)C(F)(F)F | 105 to 107 |
| CC(C)(C)OC(=O)NC(COS(C)(=O)=O)COS(C)(=O)=O | 96 to 98 |
| NC1(C(=O)O)CCN(Cc2ccccc2)C1 (stereo unspecified) | 216 to 218 |
| COCCC(NC(C)=O)C(=O)O (stereo unspecified) | 152 to 154 |
| N#CCC(=O)Cc1ccc(Cl)cc1 | 85 to 87 |
| OCCCNC(c1ccccc1)c1ccccc1 | 62 to 64 |
| Cc1cc(C=O)c(C)[nH]1 | 139 to 141 |
| CC(C)(C)NC(=O)NCCCl | 104 to 106 |
| NNc1ccc([N+](=O)[O-])cc1Cl | 145 to 147 |
| CC1CC(O)CC(C)N1 (stereo unspecified) | 109 to 111 |
| Cc1nc(-c2ccc(F)cc2)cs1 | 74 to 76 |
| CC(C)(C)c1csc(-c2ccc(O)cc2)n1 | 228 to 230 |
| C#CCN1CCNC1=O | 119 to 121 |
| CN(C)C(=O)c1ccc(Cl)nn1 | 137 to 139 |
| O=C(O)CCSc1nc2ccccc2s1 | 149 to 151 |
| Nc1c(-c2ccncc2)nc2ccccn12 | 211 to 213 |
| O=C(O)c1ccc(COc2ccccc2)o1 | 169 to 171 |
| CC(Cl)C(=O)N1CCNC1=O (stereo unspecified) | 116 to 120 |

| SMILES | melting point [°C] |
| --- | --- |
| Cc1nc(Cl)c2cc(-c3ccccc3)sc2n1 | 114 to 116 |
| CC(C)(C)OC(=O)N1CCN(c2ccc(Cl)nn2)CC1 | 162 to 164 |
| Nc1nc(S)nc2sccc12 | 275 to 277 |
| CCOC(=O)CCc1nc(CC(=O)NC)no1 | 84 to 86 |
| O/N=C(/Cc1nc2ccccc2[nH]1)c1cccs1 | 207 to 209 |
| CC1CN(C(=O)c2ccc(N)cc2)CC(C)O1 (stereo unspecified) | 174 to 176 |
| CC1(c2cccc([N+](=O)[O-])c2)NC(=O)NC1=O (stereo unspecified) | 178 to 180 |
| Oc1ccc(CNCc2ccco2)cc1 | 107 to 109 |
| CCCN1CCc2c(sc(N)c2C(=O)OCC)C1 | 69 to 73 |
| CCc1n[nH]c(=O)c(C#N)c1CC | 166 to 168 |
| Cc1ccc(-n2c(=O)c(N)c(C)n2C)cc1 | 261 to 263 |
| CC(C)(C)OC(=O)NCCCC(=O)NN | 114 to 116 |
| CCCCC1NCCNC1=O (stereo unspecified) | 67 to 69 |
| COC(=O)CN1Cc2ccccc2C1=O | 114 to 116 |
| CSc1nc(Cl)cc(NN)n1 | 154 to 156 |
| O=Cc1ccc(-n2ccnc2)nc1 | 139 to 141 |
| Nc1cccc(-n2cc[nH]c2=O)c1 | 155 to 157 |
| NC(=O)CN1CCC(O)CC1 | 114 to 116 |
| Nc1c(Cl)cc(Cl)c2c1N=S=N2 | 176 to 178 |
| O=C1C=CC(=O)N1CCO | 59 to 61 |
| O=c1ccn2ncc(Br)c2[nH]1 | 349 to 351 |
| NC(=O)c1cc(Cl)nnc1Cl | 176 to 178 |
| OC(CC1COCCN1)c1cccs1 (stereo unspecified) | 109 to 111 |

| SMILES | melting point [°C] |
| --- | --- |
| CC(=O)NC1(C(=O)O)CCC(C)CC1 (stereo unspecified) | 211 to 213 |
| Clc1ccc2nnc(C3CC3)n2n1 | 117 to 119 |
| CC1CCCC1(N)C(N)=O (stereo unspecified) | 64 to 66 |
| O=c1occc2cccnc12 | 157 to 159 |
| O=C(O)CCNC(=O)Nc1ccccc1 | 173 to 175 |
| Nc1nc2c(Cl)cccc2[nH]1 | 143 to 145 |
| CN(C)C(=O)Cc1ccccc1N | 69 to 71 |
| CS(=O)(=O)CBr | 34 to 36 |
| CCOc1ccc(CC(CN)C(N)=O)cc1 (stereo unspecified) | 116 to 118 |
| C#CCn1c2ccccc2c2ccccc21 | 103 to 105 |
| O=c1[nH]c2ccccc2nc1NO | 258 to 260 |
| CN1C(=O)/C(=N\NC(=O)c2cccnc2)c2ccccc21 | 195 to 197 |
| ClCc1ccc(-n2cccn2)cc1 | 57 to 59 |
| COc1ccccc1CCNC(=O)CCl | 78 to 80 |
| O=C(O)CCn1nc(-c2cccs2)oc1=O | 146 to 148 |
| Nc1ccc(-c2nc3ccccc3[nH]2)cc1 | 218 to 222 |
| NC(=O)NN=Cc1ccccc1O | 232 to 234 |
| COc1cc(OC)cc(N2CCCNCC2)c1 | 50 to 52 |
| Nc1cnn(-c2ccccc2)c1 | 95 to 97 |
| NNc1c([N+](=O)[O-])cc(C(F)(F)F)cc1[N+](=O)[O-] | 129 to 131 |
| O=Cc1ccccc1OCC(F)(F)F | 51 to 53 |

The next lines start with the values.

| melting point [°C] | SMILES |
| --- | --- |
| 229 to 231 | CC(=O)c1c[nH]c2cc(Cl)ccc12 |
| 182 to 186 | Cc1cccc(C(=O)Nc2ccccc2C(=O)O)c1 |
| 255 to 257 | Oc1ccc2ccc(C(F)(F)F)nc2c1 |
| 75 to 77 | CS(=O)(=O)Nc1ccccc1F |
| 97 to 99 | Cc1ccc(C(=O)N(C)C)cc1N |
| 180 to 182 | O=C(O)c1cc([N+](=O)[O-])cc(Cl)c1F |
| 183 to 185 | CON=Cc1ccc(C(=O)O)cc1 |
| 297 to 299 | O=C(O)c1cc(-c2ccccn2)nc2ccccc12 |
| 218 to 220 | O=C(O)C1CCCCN1Cc1ccc(F)cc1 (stereo unspecified) |
| 213 to 215 | Nc1ccc(N)c(S(=O)(=O)Nc2ccccc2Cl)c1 |
| 148 to 150 | CC(=O)c1ccccc1NS(=O)(=O)c1ccc(C)cc1 |
| 68 to 70 | O=Cc1ccc(N2CCOCC2)c(F)c1 |
| 168 to 170 | CCOC(=O)/C(C#N)=C\Nc1ccc(F)cc1Cl |
| 179 to 181 | Cc1c(F)cc(C(=O)O)cc1S(=O)(=O)Cl |
| 79 to 81 | Nc1cc(Br)cc(Cl)c1O |
| 63 to 65 | CCCS(=O)(=O)Nc1cccc(N)c1 |
| 202 to 212 | O=C(O)c1cccc(CN2C(=O)c3ccccc3C2=O)c1 |
| 179 to 181 | NS(=O)(=O)c1cc(Cl)ccc1Cl |
| 129 to 131 | CNC(=O)c1cc(OC)c(OC)cc1N |
| 139 to 141 | Cc1c(F)ccc2c1NC(=O)C2=O |

| melting point [°C] | SMILES |
| --- | --- |
| 76 to 78 | COC(=O)c1cc2cccc(Br)c2o1 |
| 139 to 141 | Cc1cc(S(N)(=O)=O)c(C)s1 |
| 198 to 200 | Cc1cc(C)c(Nc2nnc(S)s2)c(Cl)c1 |
| 115 to 117 | COc1cc(C=O)cc(OC)c1OC(F)F |
| 103 to 105 | CS(=O)(=O)Cc1ccc(Cl)cc1S(=O)(=O)Cl |
| 149 to 151 | Cc1c(C(F)(F)F)cccc1S(N)(=O)=O |
| 168 to 170 | Cc1cc(C)c2cc(C(=O)O)[nH]c2c1 |
| 239 to 241 | Cc1nc(C(=O)O)c[nH]1 |
| 171 to 173 | CC(=O)NCc1ccc(C(=O)O)o1 |
| 145 to 147 | Cc1[nH]c2ccc(C#N)cc2c1C |
| 99 to 101 | CC(C)(C)NS(=O)(=O)c1ccc(F)c(N)c1 |
| 248 to 250 | Cc1noc2nc(-c3ccccc3Cl)cc(C(=O)O)c12 |
| 108 to 110 | CC(=NO)c1ccc(S(=O)(=O)N(C)C)cc1 |
| 209 to 211 | O=C(O)COc1ccc(Cl)c2cccnc12 |
| 222 to 224 | O=C(O)c1ccnc(Cl)c1[N+](=O)[O-] |
| 234 to 236 | O=Cc1cc(O)c(O)c(Cl)c1 |
| 195 to 197 | O=C(O)c1cccc(OCc2cccnc2)c1 |
| 149 to 151 | NC(=S)Nc1cc(F)cc(F)c1 |
| 136 to 138 | CC(NC(=O)CCC(=O)O)C(=O)c1ccc(Br)cc1 (stereo unspecified) |
